For experiment [1], the target named is T1, V3 receptor (Rattus norvegicus, UniProt P48974).
T1 construct: Anterior pituitary corticotrophs were prepared from adult female Sprague-Dawley rats; endogenous in cells; host or cells: primary anterior pituitary corticotrophs from adult female Sprague-Dawley rats
T1 sequence (P48974 1-425): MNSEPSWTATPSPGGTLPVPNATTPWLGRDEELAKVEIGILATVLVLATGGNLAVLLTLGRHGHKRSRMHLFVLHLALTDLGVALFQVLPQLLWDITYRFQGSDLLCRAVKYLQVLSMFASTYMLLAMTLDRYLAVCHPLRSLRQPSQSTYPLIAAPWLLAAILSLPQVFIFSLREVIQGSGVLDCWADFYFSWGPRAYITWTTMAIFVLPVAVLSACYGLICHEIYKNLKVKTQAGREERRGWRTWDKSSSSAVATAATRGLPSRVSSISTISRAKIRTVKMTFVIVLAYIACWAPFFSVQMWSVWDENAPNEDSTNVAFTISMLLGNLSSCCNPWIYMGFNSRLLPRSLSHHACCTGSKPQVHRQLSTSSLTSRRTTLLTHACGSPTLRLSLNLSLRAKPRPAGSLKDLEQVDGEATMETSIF
Kind of experiment: Block of AVP-induced ACTH release from isolated rat anterior pituitary corticotrophs. In kind it is cell-based. As to conditions: ACTH release after 3x10^-9 mol/L AVP for 120 minutes; ELISA; read-out: V3 receptor antagonism in isolated rat anterior pituitary cells. On the procedure:
The ability of compounds of the invention to act as V3 antagonists in a physiologically relevant system was determined by measuring their ability to block the release of adrenocorticotropic hormone (ACTH) from anterior pituitary corticotrophs in response to treatment with arginine vasopressin (AVP).
Anterior pituitary corticotrophs were prepared from adult female Sprague-Dawley rats and seeded into 48 well plates. The cells were cultured for 4 days prior to exposure to compound. Test compounds were prepared at 10^−5 mol.L^−1 in 100% DMSO. Cells were exposed to a dose response of test compounds for 20 minutes (10^−8 mol.L^−1−10^−5 mol.L^−1). The final concentration of DMSO in the assay was kept constant at 0.3%. The cells were then exposed to 3×10^−9 mol.L^−1 AVP for 120 minutes. Supernatants were harvested and stored at −20° C. ACTH levels were subsequently measured by ELISA following the manufacturer's instructions (Immunodiagnostic systems, UK (Cat No. DX-SDX018)). Each treatment was carried out in quadruplicate and a mean value obtained for the amount of ACTH released. The degree of antagonism was then calculated as a percentage of the amount of ACTH released by agonist alone after adjustment for basal levels of ACTH. A pIC50 was calculated by fitting a Sigmoidal dose response (variable slope) curve with a non-linear (fit) to the data using the software package GraphPad prism. […]
(ELISA stands for enzyme-linked immunosorbent assay.)

Experiment [2] concerns the target T2, human V3 receptor (Homo sapiens, UniProt P47901).
T2 construct: expressed in transfected cells
T2 sequence (P47901 1-424): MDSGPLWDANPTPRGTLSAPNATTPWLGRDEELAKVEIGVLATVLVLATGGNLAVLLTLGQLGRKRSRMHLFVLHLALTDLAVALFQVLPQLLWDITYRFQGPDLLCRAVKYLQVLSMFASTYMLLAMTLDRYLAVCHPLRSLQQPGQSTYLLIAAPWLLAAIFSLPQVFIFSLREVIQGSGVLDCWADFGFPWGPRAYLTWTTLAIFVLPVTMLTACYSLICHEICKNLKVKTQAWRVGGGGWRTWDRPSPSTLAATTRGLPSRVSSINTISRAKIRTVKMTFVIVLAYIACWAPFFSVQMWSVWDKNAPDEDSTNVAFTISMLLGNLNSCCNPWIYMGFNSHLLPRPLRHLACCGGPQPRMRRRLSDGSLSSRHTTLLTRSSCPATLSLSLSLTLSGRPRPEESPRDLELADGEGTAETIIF
The experiment is described as follows: [3H]AVP binding to CHO cells stably expressing the human V3 receptor. As to conditions: [3H]AVP 2.5x10^-9 mol/L. The method, then:
Chinese Hamster Ovary (CHO) cells stably expressing the human V3 receptor were incubated to equilibrium with the test compound (at a final assay concentration of 10^−10 mol.L^−1 to 10^−5 mol.L^−1) and [^3H]AVP (at a final assay concentration of 2.5×10^−9 mol.L^−1). […] After washing with ice-cold phosphate buffered saline (PBS), scintillation fluid was added and the plates counted on a Topcount NXT apparatus.
A sigmoidal dose response curve (non-linear regression, variable slope) was plotted as concentration of test compound (mol.L^−1) against percentage specific binding of [^3H]AVP and a Ki value was calculated. Each determination was carried out in triplicate and repeated on at least 3 separate occasions

For the molecule `CC(C)NC(=O)Cn1c(-c2cccc(Cl)c2)cc2ccc(OC[C@@H](C)CN3CCCC3)cc2c1=O` [EXAMPLE 1, 2-[3-(3-Chlorophenyl)-7-((S)-2-methyl-3-pyrrolidin-1-ylpropoxy)-1-oxo-1H-isoquinolin-2-yl]-N-isopropylacetamide], the IC50 in experiment [1] lay within 100 to 1000 nM. In turn, `CC(C)NC(=O)Cn1c(-c2cccc(F)c2)cc2ccc(OC[C@@H](C)CN(C)C)cc2c1=O` [EXAMPLE 3, 2-[7-((S)-3-Dimethylamino-2-methylpropoxy)-3-(3-fluorophenyl)-1-oxo-1H-isoquinolin-2-yl]-N-isopropylacetamide] gave a Ki in experiment [2] of 10 to 100 nM. The same measure, in the same setting: the same measure for `COc1cccc(-c2cc3ccc(OC[C@@H](C)CN4CCCCC4)cc3c(=O)n2CC(=O)NC(C)C)c1` [EXAMPLE 14, N-Isopropyl-2-[3-(3-methoxyphenyl)-7-((S)-2-methyl-3-piperidin-1-ylpropoxy)-1-oxo-1H-isoquinolin-2-yl]acetamide]: 100 to 1000 nM. On to `CC(C)(C)NC(=O)Cn1c(-c2cccc(Cl)c2)cc2ccc(OCCCN3CCC(O)CC3)cc2c1=O` [EXAMPLE 17, N-tert-Butyl-2-{3-(3-Chlorophenyl)-7-[3-(4-hydroxypiperidin-1-yl)-propoxy]-1-oxo-1H-isoquinolin-2-yl}-acetamide], for which the IC50 in experiment [1] fell in the range of 10 to 100 nM.

Take `COc1cccc(-c2cc3ccc(OCCCN4CCCC4)cc3c(=O)n2CC(=O)NC(C)(C)C)n1` [EXAMPLE 23, N-tert-Butyl-2-[3-(6-methoxypyridin-2-yl)-1-oxo-7-(3-pyrrolidin-1-ylpropoxy)-1H-isoquinolin-2-yl]acetamide]: in experiment [2], the Ki is 10 to 100 nM. With `CC(C)NC(=O)Cn1c(-c2ccccc2)cc2ccc(OCCCN3CCCCC3)cc2c1=O` [EXAMPLE 26, N-Isopropyl-2-[1-oxo-3-phenyl-7-(3-piperidin-1-ylpropoxy)-1H-isoquinolin-2-yl]acetamide], in experiment [2], the Ki was below 10 nM. Still for that read-out and setting: next, `CC(C)(C)NC(=O)Cn1c(-c2ccc(F)c(Cl)c2)cc2ccc(OCCCN3CCCC3)cc2c1=O` [EXAMPLE 28, N-tert-Butyl-2-[3-(3-chloro-4-fluorophenyl)-1-oxo-7-(3-pyrrolidin-1-ylpropoxy)-1H-isoquinolin-2-yl]acetamide]: 100 to 1000 nM; `CC(C)NC(=O)Cn1c(-c2cccc(Cl)c2)cc2ccc(-c3cccc(CN4CCCCC4)c3)cc2c1=O` [EXAMPLE 35, 2-[3-(3-Chlorophenyl)-1-oxo-7-(3-piperidin-1-ylmethylphenyl)-1H-isoquinolin-2-yl]-N-isopropylacetamide]: 10 to 100 nM.

Usually Ki stands for a dissociation constant, usually derived from enzyme kinetics or from competition with a known ligand. A low value points to a stronger hold on the target.
